In patent publication US9193746B2, “Luminescent metal complexes and associated technology” (BIOTIUM, INC., priority 2006, dated 2015):

Test system: electrophoretically separated proteins (Precision Plus Protein Standard) in a SDS-PAGE gel
Assay: Detection of electrophoretically separated proteins in a SDS-PAGE gel by luminescent staining
Details: for Staining of proteins in gel (yes/no): Example 18, FIG. 4: 1.5 μM complex, 30% MeOH, 14% acetic acid, room temperature, 90 minutes
Procedure: A gel preparation procedure is now described. Five μL of an unstained Precision Plus Protein Standard (Catalog No. 161-0363 from Bio-Rad Laboratories (Hercules, Calif.) (hereinafter, “Bio-Rad”)) were separated on the left column of a polyacrylamide pre-cast gel (Catalog No. 161-1176, a Ready Gel from Bio-Rad) in running buffer containing 20 mM glycine, 2.5 mM Tris and 0.1% SDS, using a standard SDS-PAGE procedure. Five 5 μL of the same standard diluted five times were separated on the right column of the polyacrylamide pre-cast gel under the same conditions.
The foregoing procedure was used to prepare one gel, which was further processed as described below using a particular staining solution. Separately, the same procedure was used to prepare another gel, which was further processed as described below using a different staining solution.
At the end of each of these periods, the gel was taken out of the solution, illuminated, and photographed, and if a further period remained, returned to the solution until the end of that further period. A UV transilluminator (300-nm wavelength) was used to illuminate the gel and Polaroid 667 black-and-white film was used to photograph the gel. The gel was not destained before being photographed.
A gel was prepared according to the gel preparation procedure described in connection with Example 15. The gel was then processed as now described. The gel was placed in a fixation solution comprising 50% MeOH and 7% acetic acid for 30 minutes to fix the gel. […] The gel was not destained before being photographed.
A gel was prepared according to the gel preparation procedure described in connection with Example 15. The gel was then processed as now described. The gel was placed in a fixation solution comprising 50% MeOH and 7% acetic acid for 1 hour to fix the gel. […] The gel was not destained before being photographed.
Three gels were prepared, each according to the gel preparation procedure described in connection with Example 15. One of the gels was stained using a staining solution comprising 1.5 μM of [Ru(bpy)3]Cl2 (Aldrich, Milwaukee, Wis.), wherein “bpy” is unsubstituted 2,2′-bipyridine, 30% MeOH and 14% acetic acid. Another of the gels was stained using a staining solution comprising 1.5 μM of [Ru(1,10-phenanthroline)3]Cl2 (Aldrich, Milwaukee, Wis.), 30% MeOH and 14% acetic acid. […] Each gel was stained by incubating it in the appropriate staining solution at room temperature for 90 minutes, whereupon each gel was taken out of the staining solution, illuminated and photographed in the manner described in connection with Example 15. No gel was destained before being photographed.

Compound | Staining of proteins in gel (yes/no) (not destained) | Protein staining in gel (sensitivity, background) (Example 17, FIG. 3: fixed gel, 2 μM complex, 1% ethanol in H2O, overnight, not destained) | Protein staining compared with SYPRO Ruby stain (Example 17, FIG. 3 versus FIG. 1, without destaining)
[Cl][Ru][Cl].c1ccc(-c2ccccn2)nc1.c1ccc(-c2ccccn2)nc1.c1ccc(-c2ccccn2)nc1 [[Ru(bpy)3]Cl2] | failed to stain proteins |  | 
[Cl][Ru][Cl].c1cnc2c(c1)ccc1cccnc12.c1cnc2c(c1)ccc1cccnc12.c1cnc2c(c1)ccc1cccnc12 [[Ru(1,10-phenanthroline)3]Cl2] | failed to stain proteins |  | 
Re[(bathocuproin disulfonate)(CO)3(4-phenylpyridine)]^−Na^+ [Complex No. 2] |  | good sensitivity and relatively low background | performing at least as well as, if not outperforming, SYPRO Ruby
